In patent publication US7183268B2, “2-amino-9-[(2-hydroxymethyl) cyclopropylidenemethyl] purine antiviral agents” (Wayne State University, priority 2002, dated 2007):
Like-named read-outs stand apart in the source and are kept apart here.

Tests used:
[1] = system: Growing KB cells; test: Cytotoxicity in growing KB cells (crystal violet staining); type: cell-based
Protocol: (§1) Cells and viruses. The routine growth and passage of KB cells was performed in monolayer cultures using minimal essential medium (MEM) with either Hanks salts [MEM(H)] or Earle salts [MEM(E)] supplemented with 10% calf serum. The sodium bicarbonate concentration was varied to meet the buffering capacity required. Cultures of diploid human foreskin fibroblasts (HFF) or MRC-5 cells were grown in medium consisting of MEM(E) with 10% fetal bovine serum. Cells were passaged at 1:2 to 1:10 dilutions according to conventional procedures by using 0.05% trypsin plus 0.02% EDTA in a HEPES buffered salt solution (HBS) (Shipman, C., Jr., Proc. Soc. Exp. Biol. 130:305–310 (1969)) as described previously. (Turk, S. R., et al., Antimicrob. Agents Chemother. 31:544–550 (1987). HFF and MRC-5 cells were passaged only at 1:2 dilutions.
(§2) Cytotoxicity assays. Two different assays were used to explore cytotoxicity of selected compounds as we have detailed previously. (i) Cytotoxicity produced in stationary HFF cells was determined by microscopic inspection of cells used in plaque assays which were not affected by the virus. (ii) The effect of compounds during two population doublings of KB cells was determined by crystal violet staining and spectrophotometric quantitation of dye eluted from stained cells. (Turk, S. R., et al., Antimicrob. Agents Chemother. 35:1060–1065 (1991).
(§3) Data Analysis. Dose-response relationships were constructed by linearly regressing the percent inhibition of parameters derived in the preceding sections against log drug concentrations. Fifty-percent inhibitory (IC50) concentrations were calculated from the regression lines. Samples containing positive controls (acyclovir for HSV-1, ganciclovir for HCMV, and 2-acetylpyridine thiosemicarbazone for cytotoxicity) were used in all assays. Results from sets of assays were rejected if inhibition by the positive control deviated from its mean response by >±1.5 standard deviations.

[2] = system: HSV-1; test: HSV-1 ELISA in BSC-1 cells; type: cell-based
Protocol: as §1
(§4) Virological procedures. Stock HCMV was prepared by infecting HFF cells at a multiplicity of infection (m.o.i.) of <0.01 plaque-forming units (p.f.u.) per cell. Cell growth medium was changed every four days until cytopathology was evident in all cells (approximately 21 days). Supernatant fluids were retained as the virus stock. High titer HSV-1 stocks were prepared by infecting KB cells at an m.o.i. of <0.1 as detailed previously. (Turk, S. R., et al., Antimicrob. Agents Chemother. 31:544–550 (1987). Virus titers were determined using monolayer cultures of HFF cells for HCMV and monolayer cultures of BSC-1 cells for HSV-1 as described earlier. (Prichard, M. N. et al., J. Virol. Methods 28:101–106 (1990). Briefly, HFF or BSC-1 cells were planted as described above in 96-well cluster dishes and incubated overnight at 37° C. in a humidified 3% CO2–97% air atmosphere. The next day cultures were inoculated with HCMV or HSV-1 and serially diluted 1:3 across the remaining eleven columns of the 96-well plate. Cultures were incubated at 37° C. for 2 hr to permit virus adsorption and then virus inoculum was replaced with 0.2 mL of fresh medium. Cultures were incubated for seven days for HCMV, two or three days for HSV-1, medium was removed, and the cell sheets were stained with 0.1% crystal violet in 20% methanol. Plaques were enumerated under 20-fold magnification in wells having the dilution which gave 5 to 20 plaques per well. Virus titers were calculated according to the following formula: Titer (p.f.u./mL)=number of plaques×5×3^n; where n represents the nth dilution of the virus used to infect the well in which plaques were enumerated.
Assays for Antiviral Activity. (b) HSV-1. An enzyme-linked immunosorbent assay (ELISA) was employed to detect HSV-1. 96-well cluster dishes were planted with BSC-1 cells at 10,000 cells per well, in a total volume of 200 μL per well of MEM(E) plus 10% calf serum. After overnight incubation at 37° C., drug and HSV-1 was added at the rate of 100 PFU/well. ELISA plates were blocked with 200 μL per well of 10% calf serum and 0.05% tween in HBS. After incubation for 30 minutes, the blocking agent was rinsed two times with HBS-T. A 1:400 dilution of AP conjugated rabbit anti-HSV-1 antibody in HBS-F was added. Plates were sealed with adhesive sheet, and incubated on rocker for one hour at 37° C. Plates were developed in the dark with 100 μL per well of substrate solution containing p-nitrophenyl phosphate. Plates were read at 492 nm. Drug effects were calculated as a percentage of the reduction in virus in the presence of each drug concentration compared to the titer obtained in the absence of drug. Acyclovir was used as a positive control in all experiments.
as §3, with “Results from sets of assays were rejected if inhibition by the positive control deviated from its mean response by >±1.5 standard deviations.” left out

[3] = system: Stationary HFF cells; test: Cytotoxicity in stationary HFF cells (microscopic inspection); type: cell-based, human
Protocol: as §1, §2, §3

[4] = system: HCMV; test: HCMV plaque reduction assay in HFF cells; type: cell-based
Protocol: as §1, §4
Assays for Antiviral Activity. (a) HCMV. The effect of compounds on the replication of HCMV has been measured using a plaque reduction assay. HFF cells in 24-well cluster dishes were infected with approximately 100 p.f.u. of HCMV per cm^2 cell sheet using the procedures detailed above. Following virus adsorption, compounds dissolved in growth medium were added to duplicate wells in three to six selected concentrations. Following incubation at 37° C. for 7 to 10 days, cell sheets were fixed, stained with crystal violet and microscopic plaques enumerated as described above. Drug effects were calculated as a percentage of reduction in number of plaques in the presence of each drug concentration compared to the number observed in the absence of drug. Ganciclovir (GCV) was used as a positive control in all experiments.
as §3

Structure (SMILES)	IC50 ([1]; Homo sapiens) [µM]	IC50 ([2]; Human alphaherpesvirus 1) [µM]	IC50 [3] [µM]	IC50 [1] [µM]	IC50 ([4]; HFF host cells) [µM]	IC50 [2] [µM]	IC50 ([3]; Homo sapiens) [µM]	IC50 ([4]; Human betaherpesvirus 5, HFF host cells) [µM]
Nc1nc2c(ncn2COCCO)c(=O)[nH]1 [Acyclovir, reference compound]	> 100	0.15	–	–	–	–	–	–
C=CCNc1nc(N)nc2c1ncn2/C=C1/C[C@@H]1CO [Compound 6, (Z,S)-(+)-2-Amino-6-allylamino-9-[(2-hydroxymethyl)cyclopropylidenemethyl]purine]	–	–	> 100	> 100	1.8	4	–	–
C#CCNc1nc(N)nc2c1ncn2/C=C1/C[C@@H]1CO [Compound 7, (Z,S)-(+)-2-Amino-6-propargylamino-9-[(2-hydroxymethyl)-cyclopropylidenemethyl]purine]	–	–	> 100	> 100	3.5	6	–	–
Nc1nc(NCC2CC2)c2ncn(/C=C3/C[C@@H]3CO)c2n1 [Compound 8, (Z,S)-(+)-2-Amino-6-cyclopropylmethylamino-9-[(2-hydroxymethyl)cyclopropylidenemethyl]purine]	–	–	> 100	> 100	3.8	2.5	–	–
CC(C)Nc1nc(N)nc2c1ncn2/C=C1/C[C@@H]1CO [Compound 9, (Z,S)-(+)-2-Amino-6-isopropylamino-9-[(2-hydroxymethyl)-cyclopropylidenemethyl]purine]	–	–	> 100	> 100	3.8	15	–	–
Nc1nc(NCc2ccccc2)c2ncn(/C=C3/C[C@@H]3CO)c2n1 [Compound 10, (Z,S)-(+)-2-Amino-6-benzylamino-9-[(2-hydroxymethyl)cyclopropylidenemethyl]purine]	–	–	> 100	> 100	> 100	25	–	–
Nc1nc(NC2CCCCC2)c2ncn(/C=C3/C[C@@H]3CO)c2n1 [Compound 11, (Z,S)-(+)-2-Amino-6-cyclohexylamino-9-[(2-hydroxymethyl)-cyclopropylidenemethyl]purine]	–	–	> 100	> 100	> 100	15	–	–
Nc1nc(NCCO)c2ncn(/C=C3/C[C@@H]3CO)c2n1 [Compound 12, (Z,S)-(+)-2-Amino-6-(2-hydroxy)ethylamino-9-[(2-hydroxymethyl)cyclopropylidenemethyl]purine]	–	–	> 100	> 100	39	> 100	–	–
CCCOc1nc(N)nc2c1ncn2/C=C1/C[C@@H]1CO [Compound 13a, (Z,S)-(+)-2-Amino-6-propoxy-9-[(2-hydroxymethyl)cyclopropylidenemethyl]purine]	–	–	> 100	> 100	0.26	1	–	–
CCCCCOc1nc(N)nc2c1ncn2/C=C1/C[C@@H]1CO [Compound 13b, (Z,S)-(+)-2-Amino-6-pentyloxy-9-[(2-hydroxymethyl)cyclopropylidenemethyl]purine]	–	–	> 100	> 100	0.21	7	–	–
C=CCOc1nc(N)nc2c1ncn2/C=C1/C[C@@H]1CO [Compound 14, (Z,S)-(+)-2-Amino-6-allyloxy-9-[(2-hydroxymethyl)cyclopropylidenemethyl]purine]	–	–	> 100	> 100	0.33	1.5	–	–
Nc1nc(OCC2CC2)c2ncn(/C=C3/C[C@@H]3CO)c2n1 [Compound 15, (Z,S)-(+)-2-Amino-6-cyclopropylmethoxy-9-[(2-hydroxymethyl)cyclopropylidenemethyl]purine]	–	–	> 100	> 100	0.32	7	–	–
CCCSc1nc(N)nc2c1ncn2/C=C1/C[C@@H]1CO [Compound 16a, (Z,S)-(+)-2-Amino-6-propylthio-9-[(2-hydroxymethyl)cyclopropylidenemethyl]purine]	–	–	> 100	> 100	0.22	1	–	–
CCCCCSc1nc(N)nc2c1ncn2/C=C1/C[C@@H]1CO [Compound 16b, (Z,S)-(+)-2-Amino-6-pentylthio-9-[(2-hydroxymethyl)cyclopropylidenemethyl]purine]	–	–	> 100	> 100	0.32	7	–	–
Nc1nc(S)c2ncn(/C=C3/C[C@@H]3CO)c2n1 [Compound 17, (Z,S)-(+)-2-Amino-6-thio-9-[(2-hydroxymethyl)cyclopropylidenemethyl]purine]	–	–	> 100	> 100	37	> 100	–	–
Nc1ncc2ncn(/C=C3/C[C@@H]3CO)c2n1 [Compound 18, (Z,S)-(+)-2-Amino-9-[(2-hydroxymethyl)cyclopropylidenemethyl]purine]	–	–	> 100	> 100	> 100	35	–	–
Nc1nc(O)c2ncn(COC(CO)CO)c2n1 [Ganciclovir, reference compound]	–	–	–	–	–	–	> 100	4.1
